The values that follow come from patent US9572345B2, “Pesticidal composition in the form of aqueous emulsion” (Sumitomo Chemical Company, Limited, priority 2012, dated 2017).

A short description of this series: Retention rate of the agriculturally active ingredient after xenon light irradiation (neat film on petri dish). The class given is physicochemical. The following applies: xenon light (290 nm cutoff), intensity 0.68 W/m^2 at 340 nm, 8 hours, 35° C.; 5 mg air-dried on glass petri dish; HPLC. Here is the method:
A method for the calculation of a retention rate of the agriculturally active ingredient defined above is more specifically as follows. First, 250 mg of the agriculturally active ingredient is dissolved in 50 ml of a solvent such as acetone, which can sufficiently dissolve the agriculturally active ingredient and also has high volatility, and 1 mL of the solution is added to a glass petri dish having a diameter of 6 cm using a one-mark pipette, spread entirely over the petri dish, and then air-dried at room temperature. The petri dish is covered with a lid made of quartz glass and then set in a weathering tester (manufactured by Q-Lab Corporation under the trade name of Q-SUN Xenon Accelerated Weathering Tester, Model Xe-3) equipped with a borosilicate filter (manufactured by Q-Lab Corporation under the trade name of Daylight-BB Optical Filter) attached thereto. After irradiation with xenon light under the conditions of an intensity at 340 nm of 0.68 W/m^2 and a temperature of 35° C. (35° C. as measured by an insulated black panel thermometer) for 8 hours, the amount of the agriculturally active ingredient remaining on the petri dish is determined by a known determination method such as high-performance liquid chromatography. It is possible to determine a retention rate by calculating as the weight percentage relative to 5 mg of the agriculturally active ingredient used above. […]

As to `C=CCSC(=O)n1c(N)c(-c2ccccc2C)c(=O)n1C(C)C` [fenpyrazamine], the “retention rate after irradiation with xenon light” value is listed as 28.1%.
